The source of these data is BindingDB's records for doi:10.1016/j.bmcl.2004.09.058 (Schering-Plough Research Institute, 2004).

One may read the Ki as a measure of affinity in units of concentration, obtained from inhibition or displacement. The low end stands for a stronger hold on the target, the high end for a looser hold on the target.

In this assay the target is Genome polyprotein (Hepatitis C virus genotype 1a (isolate H77), UniProt P27958). In words: Continuous Spectrophotometric Assay. As to conditions: pH 6.5; 30 °C. As to the method: Proteolytic cleavage of the ester linkage between the Nva (L-norvaline) and the chromophore (PAP) was monitored for change in absorbance at 370 nm. Initial velocities were determined using linear regression and kinetic constants were obtained by fitting the data to the Michaelis-Menten equation.

A value given as a limit tells only on which side of the number the result lay.

Chain of Genome polyprotein (P27958 1027-1657 limits assumed): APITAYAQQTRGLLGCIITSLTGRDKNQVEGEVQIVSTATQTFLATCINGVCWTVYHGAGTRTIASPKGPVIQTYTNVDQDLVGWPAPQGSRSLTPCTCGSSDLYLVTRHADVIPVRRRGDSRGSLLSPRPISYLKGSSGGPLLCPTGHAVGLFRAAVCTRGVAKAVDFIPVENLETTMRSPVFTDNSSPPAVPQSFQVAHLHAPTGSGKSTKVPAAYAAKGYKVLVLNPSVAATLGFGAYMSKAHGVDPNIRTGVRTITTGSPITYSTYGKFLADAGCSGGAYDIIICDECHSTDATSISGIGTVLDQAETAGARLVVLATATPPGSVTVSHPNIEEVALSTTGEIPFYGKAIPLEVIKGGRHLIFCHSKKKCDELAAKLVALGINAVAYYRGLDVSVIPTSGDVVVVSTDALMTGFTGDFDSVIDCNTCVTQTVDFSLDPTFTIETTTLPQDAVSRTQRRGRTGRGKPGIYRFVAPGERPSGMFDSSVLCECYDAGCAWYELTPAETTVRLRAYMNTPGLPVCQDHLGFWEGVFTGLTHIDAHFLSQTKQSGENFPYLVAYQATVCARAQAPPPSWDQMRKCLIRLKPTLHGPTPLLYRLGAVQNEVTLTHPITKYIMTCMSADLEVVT

`C=CCNC(=O)C(=O)C(CCC)NC(=O)[C@@H]1CN(Cc2ccccc2)C(=O)N1C(=O)[C@@H](NC(=O)[C@@H](NC(=O)[C@H](CCC(=O)OC(C)(C)C)NC(=O)[C@H](CCC(=O)OC(C)(C)C)NC(C)=O)C(C)C)C(C)C` (stereo partly drawn) [tert-butyl (4S)-4-{[(1S)-1-{[(1S)-1-{[(2S)-1-[(5S)-3-benzyl-2-oxo-5-{[1-oxo-1-(prop-2-en-1-ylcarbamoyl)pentan-2-yl]carbamoyl}imidazolidin-1-yl]-3-methyl-1-oxobutan-2-yl]carbamoyl}-2-methylpropyl]carbamoyl}-4-(tert-butoxy)-4-oxobutyl]carbamoyl}-4-acetamidobutanoate]: the inhibitory constant (Ki) was determined as 61 µM. This lies in the double-digit micromolar range.
To `C=CCNC(=O)C(=O)C(CCC)NC(=O)[C@@H]1CN(CC(=O)OCC)C(=O)N1C(=O)[C@@H](NC(=O)[C@@H](NC(=O)OCC(C)C)C(C)C)C(C)C` (stereo partly drawn) [ethyl 2-[(4S)-3-[(2S)-3-methyl-2-[(2S)-3-methyl-2-{[(2-methylpropoxy)carbonyl]amino}butanamido]butanoyl]-2-oxo-4-{[1-oxo-1-(prop-2-en-1-ylcarbamoyl)pentan-2-yl]carbamoyl}imidazolidin-1-yl]acetate] belongs 78 µM; to `C=CCNC(=O)C(=O)C(CCC)NC(=O)[C@@H]1CNC(=O)N1C(=O)[C@@H](NC(=O)[C@@H](NC(=O)[C@H](CCC(=O)O)NC(=O)[C@H](CCC(=O)O)NC(C)=O)C(C)C)C(C)C` (stereo partly drawn) [(4S)-4-{[(1S)-3-carboxy-1-{[(1S)-2-methyl-1-{[(2S)-3-methyl-1-oxo-1-[(5S)-2-oxo-5-{[1-oxo-1-(prop-2-en-1-ylcarbamoyl)pentan-2-yl]carbamoyl}imidazolidin-1-yl]butan-2-yl]carbamoyl}propyl]carbamoyl}propyl]carbamoyl}-4-acetamidobutanoic acid], 46 µM; to `C=CCNC(=O)C(=O)C(CCC)NC(=O)[C@@H]1CNC(=O)N1C(=O)[C@@H](NC(=O)[C@@H](NC(=O)[C@H](CCC(=O)OC(C)(C)C)NC(=O)[C@H](CCC(=O)OC(C)(C)C)NC(C)=O)C(C)C)C(C)C` (stereo partly drawn) [tert-butyl (4S)-4-{[(1S)-4-(tert-butoxy)-1-{[(1S)-2-methyl-1-{[(2S)-3-methyl-1-oxo-1-[(5S)-2-oxo-5-{[1-oxo-1-(prop-2-en-1-ylcarbamoyl)pentan-2-yl]carbamoyl}imidazolidin-1-yl]butan-2-yl]carbamoyl}propyl]carbamoyl}-4-oxobutyl]carbamoyl}-4-acetamidobutanoate], 69 µM.
With `C=CCNC(=O)C(=O)C(CCC)NC(=O)[C@@H]1CN(Cc2ccccc2)C(=O)N1C(=O)[C@@H](NC(=O)[C@@H](NC(=O)[C@H](CCC(=O)O)NC(=O)[C@H](CCC(=O)O)NC(C)=O)C(C)C)C(C)C` (stereo partly drawn) [(4S)-4-{[(1S)-1-{[(1S)-1-{[(2S)-1-[(5S)-3-benzyl-2-oxo-5-{[1-oxo-1-(prop-2-en-1-ylcarbamoyl)pentan-2-yl]carbamoyl}imidazolidin-1-yl]-3-methyl-1-oxobutan-2-yl]carbamoyl}-2-methylpropyl]carbamoyl}-3-carboxypropyl]carbamoyl}-4-acetamidobutanoic acid], the inhibition constant Ki worked out at 1 µM.
Compound `C=CCNC(=O)C(=O)C(CCC)NC(=O)[C@@H]1CN(CC(=O)OCC)C(=O)N1C(=O)[C@@H](NC(=O)[C@@H](NC(=O)[C@H](CCC(=O)OC(C)(C)C)NC(=O)[C@H](CCC(=O)OC(C)(C)C)NC(C)=O)C(C)C)C(C)C` (stereo partly drawn) [tert-butyl (4S)-4-{[(1S)-4-(tert-butoxy)-1-{[(1S)-1-{[(2S)-1-[(5S)-3-(2-ethoxy-2-oxoethyl)-2-oxo-5-{[1-oxo-1-(prop-2-en-1-ylcarbamoyl)pentan-2-yl]carbamoyl}imidazolidin-1-yl]-3-methyl-1-oxobutan-2-yl]carbamoyl}-2-methylpropyl]carbamoyl}-4-oxobutyl]carbamoyl}-4-acetamidobutanoate] yielded a Ki of 30 µM.
To `C=CCOC(=O)CNC(=O)C(=O)C(CCC)NC(=O)[C@@H]1CN(Cc2ccccc2)C(=O)N1C(=O)[C@@H](NC(=O)[C@@H](NC(=O)[C@H](CCC(=O)OC(C)(C)C)NC(=O)[C@H](CCC(=O)OC(C)(C)C)NC(C)=O)C(C)C)C(C)C` (stereo partly drawn) [tert-butyl (4S)-4-{[(1S)-1-{[(1S)-1-{[(2S)-1-[(5S)-3-benzyl-2-oxo-5-[(1-oxo-1-{[2-oxo-2-(prop-2-en-1-yloxy)ethyl]carbamoyl}pentan-2-yl)carbamoyl]imidazolidin-1-yl]-3-methyl-1-oxobutan-2-yl]carbamoyl}-2-methylpropyl]carbamoyl}-4-(tert-butoxy)-4-oxobutyl]carbamoyl}-4-acetamidobutanoate] belongs > 100 µM; to `C=CCNC(=O)C(=O)C(CCC)NC(=O)[C@@H]1CN(CC(=O)OCC)C(=O)N1C(=O)[C@@H](NC(=O)[C@@H](NC(=O)[C@H](CCC(=O)O)NC(=O)[C@H](CCC(=O)O)NC(C)=O)C(C)C)C(C)C` (stereo partly drawn) [(4S)-4-{[(1S)-3-carboxy-1-{[(1S)-1-{[(2S)-1-[(5S)-3-(2-ethoxy-2-oxoethyl)-2-oxo-5-{[1-oxo-1-(prop-2-en-1-ylcarbamoyl)pentan-2-yl]carbamoyl}imidazolidin-1-yl]-3-methyl-1-oxobutan-2-yl]carbamoyl}-2-methylpropyl]carbamoyl}propyl]carbamoyl}-4-acetamidobutanoic acid], 4 µM.
To `C=CCOC(=O)CNC(=O)C(=O)C(CCC)NC(=O)[C@@H]1CN(Cc2ccc(Cl)c(Cl)c2)C(=O)N1C(=O)[C@@H](NC(=O)[C@@H](NC(=O)[C@H](CCC(=O)O)NC(=O)[C@H](CCC(=O)O)NC(C)=O)C(C)C)C(C)C` (stereo partly drawn) [(4S)-4-{[(1S)-3-carboxy-1-{[(1S)-1-{[(2S)-1-[(5S)-3-[(3,4-dichlorophenyl)methyl]-2-oxo-5-[(1-oxo-1-{[2-oxo-2-(prop-2-en-1-yloxy)ethyl]carbamoyl}pentan-2-yl)carbamoyl]imidazolidin-1-yl]-3-methyl-1-oxobutan-2-yl]carbamoyl}-2-methylpropyl]carbamoyl}propyl]carbamoyl}-4-acetamidobutanoic acid] belongs 0.31 µM; to `C=CCOC(=O)CNC(=O)C(=O)C(CCC)NC(=O)[C@@H]1CN(Cc2ccc(Cl)c(Cl)c2)C(=O)N1C(=O)[C@@H](NC(=O)[C@@H](NC(=O)[C@H](CCC(=O)OC(C)(C)C)NC(=O)[C@H](CCC(=O)OC(C)(C)C)NC(C)=O)C(C)C)C(C)C` (stereo partly drawn) [tert-butyl (4S)-4-{[(1S)-4-(tert-butoxy)-1-{[(1S)-1-{[(2S)-1-[(5S)-3-[(3,4-dichlorophenyl)methyl]-2-oxo-5-[(1-oxo-1-{[2-oxo-2-(prop-2-en-1-yloxy)ethyl]carbamoyl}pentan-2-yl)carbamoyl]imidazolidin-1-yl]-3-methyl-1-oxobutan-2-yl]carbamoyl}-2-methylpropyl]carbamoyl}-4-oxobutyl]carbamoyl}-4-acetamidobutanoate], > 100 µM.
To `C=CCOC(=O)CNC(=O)C(=O)C(CCC)NC(=O)[C@@H]1CN(Cc2ccccc2)C(=O)N1C(=O)[C@@H](NC(=O)[C@@H](NC(=O)[C@H](CCC(=O)O)NC(=O)[C@H](CCC(=O)O)NC(C)=O)C(C)C)C(C)C` (stereo partly drawn) [(4S)-4-{[(1S)-1-{[(1S)-1-{[(2S)-1-[(5S)-3-benzyl-2-oxo-5-[(1-oxo-1-{[2-oxo-2-(prop-2-en-1-yloxy)ethyl]carbamoyl}pentan-2-yl)carbamoyl]imidazolidin-1-yl]-3-methyl-1-oxobutan-2-yl]carbamoyl}-2-methylpropyl]carbamoyl}-3-carboxypropyl]carbamoyl}-4-acetamidobutanoic acid] belongs 1 µM.
